According to patent US20240239861A1, “GLUCAGON-RECEPTOR SELECTIVE POLYPEPTIDES AND METHODS OF USE THEREOF” (i2O Therapeutics, Inc., priority 2016, published 2024):
Where two headings read alike, the source gives them in different places. Where a SMILES comes first, the peptide text is derived from it. [ ]: non-standard residue; d: D form. Aib = CC(C)(N)C(=O)O

Tests used:
human GCGR = human GCGR (Homo sapiens, UniProt P47871); test: Peptide-receptor mediated cAMP accumulation (LANCE Ultra cAMP) in CHO-K1 cells transfected with human GCGR; assay type: cell-based
human GLP-1R = human GLP-1R (Homo sapiens, UniProt P43220); test: Peptide-receptor mediated cAMP accumulation (LANCE Ultra cAMP) in CHO-K1 cells transfected with human GLP-1R; assay type: cell-based
in vivo = settings: male, rat
[1] = Solubility in water or saline at room temperature, visual inspection; assay type: physicochemical; settings: Solubility in water mg/ml
Description: Samples were visually inspected for clarity of the sample, any appearance of turbidity or haziness.

[2] = Clearance following intravenous infusion, acylated peptides (1-hour infusion, 0.033 mg/kg); settings: rat, in vivo
[3] = hGLP1 pEC50 (cAMP mean (n = 3): 11 point curve starting at 1 nM, Table 3)
[4] = read-out: GluR pEC50 (converted)
[5] = Table 7, GLP-1R, read-out: GLP-1R pEC50 (converted)

Sequence of human GLP-1R (P43220 24-463): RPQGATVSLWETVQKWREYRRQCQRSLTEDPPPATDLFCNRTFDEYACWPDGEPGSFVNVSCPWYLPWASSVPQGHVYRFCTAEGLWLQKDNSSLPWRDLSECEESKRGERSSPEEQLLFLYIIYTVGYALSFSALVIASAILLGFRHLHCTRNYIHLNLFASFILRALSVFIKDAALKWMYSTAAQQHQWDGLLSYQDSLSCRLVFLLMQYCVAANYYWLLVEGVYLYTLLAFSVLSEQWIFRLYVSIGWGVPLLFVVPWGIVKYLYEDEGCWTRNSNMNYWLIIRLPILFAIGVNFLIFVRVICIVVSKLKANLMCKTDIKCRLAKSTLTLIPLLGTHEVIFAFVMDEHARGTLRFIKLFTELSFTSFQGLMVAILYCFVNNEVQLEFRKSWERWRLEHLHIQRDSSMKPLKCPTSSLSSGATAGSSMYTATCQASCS
Sequence of human GCGR (P47871 26-477): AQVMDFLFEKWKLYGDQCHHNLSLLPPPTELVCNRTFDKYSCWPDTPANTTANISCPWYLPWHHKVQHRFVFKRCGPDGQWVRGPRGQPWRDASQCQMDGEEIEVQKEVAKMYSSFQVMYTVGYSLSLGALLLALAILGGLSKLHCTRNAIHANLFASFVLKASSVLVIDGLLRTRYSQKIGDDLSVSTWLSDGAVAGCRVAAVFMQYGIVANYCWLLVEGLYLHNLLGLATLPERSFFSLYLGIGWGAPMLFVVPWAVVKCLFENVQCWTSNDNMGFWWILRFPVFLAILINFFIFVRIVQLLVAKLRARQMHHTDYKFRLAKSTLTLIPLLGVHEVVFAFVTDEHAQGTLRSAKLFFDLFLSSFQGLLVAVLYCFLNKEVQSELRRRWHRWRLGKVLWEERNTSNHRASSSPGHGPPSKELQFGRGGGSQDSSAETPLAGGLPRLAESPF

Structure (SMILES)	EC50 (human GCGR; Table 3) [nM]	EC50 (human GLP-1R; [3]) [nM]	clearance (in vivo) [mL/min/kg]	EC50 (human GCGR; Table 2B) [nM]	hGCGR pEC50 (cAMP mean (n = 3): 11 point curve starting at 1 nM) (human GCGR; Table 3)	EC50 (human GLP-1R; hGLP1 pEC50 (cAMP) mean (n = 3): 11 point curve starting at 1 nM, Table 2B) [nM]	solubility [1] [mg/mL]	EC50 (human GCGR; [4]) [nM]	EC50 (human GLP-1R; [5]) [nM]	clearance [2] [mL/min/kg]	half-life [2] [h]
CC(C)C[C@H](NC(=O)[C@H](Cc1ccc(O)cc1)NC(=O)[C@H](CCCCN)NC(=O)[C@H](CO)NC(=O)[C@H](Cc1ccc(O)cc1)NC(=O)[C@H](CC(=O)O)NC(=O)[C@H](CO)NC(=O)[C@@H](NC(=O)[C@H](Cc1ccccc1)NC(=O)[C@@H](NC(=O)CNC(=O)[C@H](Cc1c[nH]cn1)NC(=O)[C@H](CO)NC(=O)[C@@H](N)Cc1ccc(O)cc1)[C@@H](C)O)[C@@H](C)O)C(=O)N[C@@H](CC(=O)O)C(=O)NC(C)(C)C(=O)N[C@@H](C)C(=O)N[C@@H](CCCNC(=N)N)C(=O)N[C@@H](C)C(=O)N[C@@H](CCC(N)=O)C(=O)N[C@@H](CCC(=O)O)C(=O)N[C@@H](Cc1ccccc1)C(=O)N[C@H](C(=O)NC(C)(C)C(=O)N[C@@H](Cc1c[nH]c2ccccc12)C(=O)N[C@@H](CC(C)C)C(=O)N[C@@H](CCC(=O)O)C(=O)N[C@@H](CC(=O)O)C(=O)N[C@@H](CCC(=O)O)C(=O)N1CCC[C@H]1C(=O)N[C@@H](CO)C(=O)N[C@@H](CO)C(=O)NCC(=O)N[C@@H](C)C(=O)N1CCC[C@H]1C(=O)N1CCC[C@H]1C(=O)N1CCC[C@H]1C(=O)N[C@@H](CO)C(=O)O)C(C)C [Compound A103] (H-YSHGTFTSDYSKYLD[Aib]ARAQEFV[Aib]WLEDEPSSGAPPPS-OH; N-terminus assumed)		> 1	28.5	0.00126	11.9	> 1	> 200				
CCCCCCCCCCCCCCCC(=O)N[C@@H](CCC(=O)NCCCC[C@H](NC(=O)[C@H](CC(=O)O)NC(=O)[C@H](CC(C)C)NC(=O)[C@H](Cc1ccc(O)cc1)NC(=O)[C@H](CCCCN)NC(=O)[C@H](CO)NC(=O)[C@H](Cc1ccc(O)cc1)NC(=O)[C@H](CC(=O)O)NC(=O)[C@H](CO)NC(=O)[C@@H](NC(=O)[C@H](Cc1ccccc1)NC(=O)[C@@H](NC(=O)CNC(=O)[C@H](Cc1c[nH]cn1)NC(=O)[C@H](CO)NC(=O)[C@@H](N)Cc1ccc(O)cc1)[C@@H](C)O)[C@@H](C)O)C(=O)N[C@@H](CCCCN)C(=O)N[C@@H](Cc1ccc(O)cc1)C(=O)N[C@@H](C)C(=O)N[C@@H](CCC(N)=O)C(=O)N[C@@H](CCC(=O)O)C(=O)N[C@@H](Cc1ccccc1)C(=O)N[C@H](C(=O)NC(C)(C)C(=O)N[C@@H](Cc1c[nH]c2ccccc12)C(=O)N[C@@H](CC(C)C)C(=O)N[C@@H](CCC(=O)O)C(=O)N[C@@H](CC(=O)O)C(=O)N[C@@H](CCC(=O)O)C(=O)N1CCC[C@H]1C(=O)N[C@@H](CO)C(=O)N[C@@H](CO)C(=O)NCC(=O)N[C@@H](C)C(=O)N1CCC[C@H]1C(=O)N1CCC[C@H]1C(=O)N1CCC[C@H]1C(=O)N[C@@H](CO)C(=O)O)C(C)C)C(=O)O [Compound B3]								0.00398	> 1000	18.8	1.79
CCCCCCCCCCCCCCCC(=O)N[C@@H](CCC(=O)NCCCC[C@H](NC(=O)[C@H](CO)NC(=O)[C@H](CO)NC(=O)[C@@H]1CCCN1C(=O)[C@H](CCC(=O)O)NC(=O)[C@H](CC(=O)O)NC(=O)[C@H](CCC(=O)O)NC(=O)[C@H](CC(C)C)NC(=O)[C@H](Cc1c[nH]c2ccccc12)NC(=O)C(C)(C)NC(=O)[C@@H](NC(=O)[C@H](Cc1ccccc1)NC(=O)[C@H](CCC(=O)O)NC(=O)[C@H](CCC(N)=O)NC(=O)[C@H](C)NC(=O)[C@H](CO)NC(=O)[C@H](CCCCN)NC(=O)C(C)(C)NC(=O)[C@H](CC(=O)O)NC(=O)[C@H](CC(C)C)NC(=O)[C@H](Cc1ccc(O)cc1)NC(=O)[C@H](CCCCN)NC(=O)[C@H](CO)NC(=O)[C@H](Cc1ccc(O)cc1)NC(=O)[C@H](CC(=O)O)NC(=O)[C@H](CO)NC(=O)[C@@H](NC(=O)[C@H](Cc1ccccc1)NC(=O)[C@@H](NC(=O)CNC(=O)[C@H](Cc1c[nH]cn1)NC(=O)[C@H](CO)NC(=O)[C@@H](N)Cc1ccc(O)cc1)[C@@H](C)O)[C@@H](C)O)C(C)C)C(=O)N[C@@H](C)C(=O)N1CCC[C@H]1C(=O)N1CCC[C@H]1C(=O)N1CCC[C@H]1C(=O)N[C@@H](CO)C(=O)O)C(=O)O [Compound B9]								0.00794	> 1000	0.594	4.98
CC(C)C[C@H](NC(=O)[C@H](Cc1c[nH]c2ccccc12)NC(=O)[C@H](CCCCNC(=O)COCCOCCNC(=O)COCCOCCNC(=O)CC[C@H](NC(=O)CCCCCCCCCCCCCCCCC(=O)O)C(=O)O)NC(=O)[C@@H](NC(=O)[C@H](Cc1ccccc1)NC(=O)[C@H](CCC(=O)O)NC(=O)[C@H](CCC(N)=O)NC(=O)[C@H](C)NC(=O)[C@H](CO)NC(=O)[C@H](CCCCN)NC(=O)C(C)(C)NC(=O)[C@H](CC(=O)O)NC(=O)[C@H](CC(C)C)NC(=O)[C@H](Cc1ccc(O)cc1)NC(=O)[C@H](CCCCN)NC(=O)[C@H](CO)NC(=O)[C@H](Cc1ccc(O)cc1)NC(=O)[C@H](CC(=O)O)NC(=O)[C@H](CO)NC(=O)[C@@H](NC(=O)[C@H](Cc1ccccc1)NC(=O)[C@@H](NC(=O)CNC(=O)[C@H](Cc1c[nH]cn1)NC(=O)[C@H](CO)NC(=O)[C@@H](N)Cc1ccc(O)cc1)[C@@H](C)O)[C@@H](C)O)C(C)C)C(=O)N[C@@H](CCC(=O)O)C(=O)N[C@@H](CC(=O)O)C(=O)N[C@@H](CCC(=O)O)C(=O)N1CCC[C@H]1C(=O)N[C@@H](CO)C(=O)N[C@@H](CO)C(=O)NCC(=O)N[C@@H](C)C(=O)N1CCC[C@H]1C(=O)N1CCC[C@H]1C(=O)N1CCC[C@H]1C(=O)N[C@@H](CO)C(=O)O [Compound B14]								0.501	> 1000	2.65	13.9

The next lines start with results.

EC50 (human GCGR; Table 3) [nM]	EC50 (human GLP-1R; [3]) [nM]	clearance (in vivo) [mL/min/kg]	Structure (SMILES)	EC50 (human GCGR; Table 2B) [nM]	hGCGR pEC50 (cAMP mean (n = 3): 11 point curve starting at 1 nM) (human GCGR; Table 3)	EC50 (human GLP-1R; hGLP1 pEC50 (cAMP) mean (n = 3): 11 point curve starting at 1 nM, Table 2B) [nM]	solubility [1] [mg/mL]	EC50 (human GCGR; [4]) [nM]	EC50 (human GLP-1R; [5]) [nM]	clearance [2] [mL/min/kg]	half-life [2] [h]
0.00398	> 1	29.4	CC(C)C[C@H](NC(=O)[C@H](Cc1ccc(O)cc1)NC(=O)[C@H](CCCCN)NC(=O)[C@H](CO)NC(=O)[C@H](Cc1ccc(O)cc1)NC(=O)[C@H](CC(=O)O)NC(=O)[C@H](CO)NC(=O)[C@@H](NC(=O)[C@H](Cc1ccccc1)NC(=O)[C@@H](NC(=O)CNC(=O)[C@H](Cc1c[nH]cn1)NC(=O)[C@H](CO)NC(=O)[C@@H](N)Cc1ccc(O)cc1)[C@@H](C)O)[C@@H](C)O)C(=O)N[C@@H](CC(=O)O)C(=O)N[C@@H](CO)C(=O)N[C@@H](C)C(=O)N[C@@H](CCCNC(=N)N)C(=O)N[C@@H](C)C(=O)N[C@@H](CCC(N)=O)C(=O)N[C@@H](CCC(=O)O)C(=O)N[C@@H](Cc1ccccc1)C(=O)N[C@H](C(=O)N[C@@H](CCCCN)C(=O)N[C@@H](Cc1c[nH]c2ccccc12)C(=O)N[C@@H](CC(C)C)C(=O)N[C@@H](CCC(=O)O)C(=O)N[C@@H](CC(=O)O)C(=O)N[C@@H](CCC(=O)O)C(=O)N1CCC[C@H]1C(=O)N[C@@H](CO)C(=O)N[C@@H](CO)C(=O)NCC(=O)N[C@@H](CCCCN)C(=O)N1CCC[C@H]1C(=O)N1CCC[C@H]1C(=O)N1CCC[C@H]1C(=O)N[C@@H](CO)C(=O)O)C(C)C [Compound A61] (H-YSHGTFTSDYSKYLDSARAQEFVKWLEDEPSSGKPPPS-OH; N-terminus assumed)								
0.001	> 1	20.9	CC(C)C[C@H](NC(=O)[C@H](Cc1ccc(O)cc1)NC(=O)[C@H](CCCCN)NC(=O)[C@H](CO)NC(=O)[C@H](Cc1ccc(O)cc1)NC(=O)[C@H](CC(=O)O)NC(=O)[C@H](CO)NC(=O)[C@@H](NC(=O)[C@H](Cc1ccccc1)NC(=O)[C@@H](NC(=O)CNC(=O)[C@H](Cc1c[nH]cn1)NC(=O)[C@H](CO)NC(=O)[C@@H](N)Cc1ccc(O)cc1)[C@@H](C)O)[C@@H](C)O)C(=O)N[C@@H](CC(=O)O)C(=O)N[C@@H](CO)C(=O)N[C@@H](C)C(=O)N[C@@H](CCCNC(=N)N)C(=O)N[C@@H](C)C(=O)N[C@@H](CCC(N)=O)C(=O)N[C@@H](CCC(=O)O)C(=O)N[C@@H](Cc1ccccc1)C(=O)N[C@H](C(=O)N[C@@H](CCCCN)C(=O)N[C@@H](Cc1c[nH]c2ccccc12)C(=O)N[C@@H](CC(C)C)C(=O)N[C@@H](CCC(=O)O)C(=O)N[C@@H](CC(=O)O)C(=O)N[C@@H](CCC(=O)O)C(=O)N1CCC[C@H]1C(=O)N[C@@H](CCCCN)C(=O)N[C@@H](CO)C(=O)N[C@@H](CCCCN)C(=O)N[C@@H](CO)C(=O)N1CCC[C@H]1C(=O)N1CCC[C@H]1C(=O)N1CCC[C@H]1C(=O)N[C@@H](CO)C(=O)O)C(C)C [Compound A70] (H-YSHGTFTSDYSKYLDSARAQEFVKWLEDEPKSKSPPPS-OH; N-terminus assumed)								
0.002	> 1	23	CC(C)C[C@H](NC(=O)[C@H](Cc1ccc(O)cc1)NC(=O)[C@H](CCCCN)NC(=O)[C@H](CO)NC(=O)[C@H](Cc1ccc(O)cc1)NC(=O)[C@H](CC(=O)O)NC(=O)[C@H](CO)NC(=O)[C@@H](NC(=O)[C@H](Cc1ccccc1)NC(=O)[C@@H](NC(=O)CNC(=O)[C@H](Cc1c[nH]cn1)NC(=O)[C@H](CO)NC(=O)[C@@H](N)Cc1ccc(O)cc1)[C@@H](C)O)[C@@H](C)O)C(=O)N[C@@H](CC(=O)O)C(=O)N[C@@H](CO)C(=O)N[C@@H](C)C(=O)N[C@@H](CCCNC(=N)N)C(=O)N[C@@H](C)C(=O)N[C@@H](CCC(N)=O)C(=O)N[C@@H](CCC(=O)O)C(=O)N[C@@H](Cc1ccccc1)C(=O)N[C@H](C(=O)N[C@@H](CCCCN)C(=O)N[C@@H](Cc1c[nH]c2ccccc12)C(=O)N[C@@H](CC(C)C)C(=O)N[C@@H](CCC(=O)O)C(=O)N[C@@H](CC(=O)O)C(=O)N[C@@H](CCC(=O)O)C(=O)N1CCC[C@H]1C(=O)N[C@@H](CCCCN)C(=O)N[C@@H](CO)C(=O)N[C@@H](CCCCN)C(=O)N[C@@H](CO)C(=O)N1CCC[C@H]1C(=O)N1CCC[C@H]1C(=O)N1CCC[C@H]1C(=O)N[C@@H](CO)C(N)=O)C(C)C [Compound A73] (H-YSHGTFTSDYSKYLDSARAQEFVKWLEDEPKSKSPPPS-NH2; N-terminus assumed)								
